Measurements taken from PubChem BioAssay AID248 (DTP/NCI, 2004).
Several values for one entry are separate records, joined by “and”; a condition that tells them apart may be missing. Equal values may be shown once. Toxic doses and inconclusive results are not listed. No stated cut-off is given here; in the data, active means T/C of 150% or more; inactive means T/C below 125%.

Tested on: L1210 leukemia ip in BDF1 mice, survival T/C
Assay: NCI In Vivo Anticancer Drug Screen. Data for tumor model L1210 Leukemia (intraperitoneal) in B6D2F1 (BDF1) mice
Settings: endpoint: mean survival time, higher = longer survival
Method in brief: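 Antitumor effect is assessed in tumor-bearing animals. Survival in the compound arm is compared with a vehicle-dosed control arm and expressed as their quotient.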

[1] = dose: 100.0 mg/kg/injection, schedule: Q04DX003 (ip), vehicle: Klucel (hydroxypropylcellulose) (HPC)
[2] = dose: 200.0 mg/kg/injection, schedule: Q04DX003 (ip), vehicle: Klucel (hydroxypropylcellulose) (HPC)
[3] = dose: 400.0 mg/kg/injection, schedule: Q04DX003 (ip), vehicle: Klucel (hydroxypropylcellulose) (HPC)
[4] = dose: 25.0 mg/kg/injection, schedule: Q01DX009 (ip), vehicle: Klucel (hydroxypropylcellulose) (HPC)
[5] = dose: 50.0 mg/kg/injection, schedule: Q01DX009 (ip), vehicle: Klucel (hydroxypropylcellulose) (HPC)
[6] = dose: 100.0 mg/kg/injection, schedule: Q01DX001 (ip), vehicle: saline
[7] = dose: 200.0 mg/kg/injection, schedule: Q01DX001 (ip), vehicle: saline
[8] = dose: 100.0 mg/kg/injection, schedule: Q01DX009 (ip), vehicle: Klucel (hydroxypropylcellulose) (HPC)
[9] = dose: 100.0 mg/kg/injection, schedule: Q01DX009 (ip), vehicle: saline with Tween-80
[10] = dose: 100.0 mg/kg/injection, schedule: Q04DX003 (ip), vehicle: saline with Tween-80
[11] = dose: 200.0 mg/kg/injection, schedule: Q01DX009 (ip), vehicle: saline with Tween-80
[12] = dose: 200.0 mg/kg/injection, schedule: Q04DX003 (ip), vehicle: saline with Tween-80
[13] = dose: 400.0 mg/kg/injection, schedule: Q04DX003 (ip), vehicle: saline with Tween-80
[14] = dose: 75.0 mg/kg/injection, schedule: Q01DX001 (ip), vehicle: saline
[15] = dose: 150.0 mg/kg/injection, schedule: Q01DX001 (ip), vehicle: saline

Measured: T/C

CCCCCCCCCCCCNCCCCCCCCCCCC
inactive: dose: 3.12 mg/kg/injection, schedule: Q01DX009 (ip), vehicle: saline 102 % of control | dose: 6.25 mg/kg/injection, schedule: Q01DX009 (ip), vehicle: saline 97 % of control | dose: 6.25 mg/kg/injection, schedule: Q04DX003 (ip), vehicle: acetone 100 % of control | dose: 12.5 mg/kg/injection, schedule: Q01DX001 (ip), vehicle: saline 93 % of control | dose: 12.5 mg/kg/injection, schedule: Q01DX009 (ip), vehicle: saline 102 % of control | dose: 12.5 mg/kg/injection, schedule: Q04DX003 (ip), vehicle: acetone 96 % of control | dose: 25.0 mg/kg/injection, schedule: Q01DX001 (ip), vehicle: saline 93 % of control | dose: 100.0 mg/kg/injection, schedule: Q01DX009 (ip), vehicle: other 105 % of control | dose: 200.0 mg/kg/injection, schedule: Q01DX009 (ip), vehicle: other 105 % of control | dose: 400.0 mg/kg/injection, schedule: Q01DX009 (ip), vehicle: other 93 % of control

CCCOc1ccc(C(=O)C(=O)c2ccccc2)cc1
inactive: dose: 100.0 mg/kg/injection, schedule: Q01DX001 (ip), vehicle: carboxymethylcellulose (CMC) 97 % of control | dose: 200.0 mg/kg/injection, schedule: Q01DX001 (ip), vehicle: carboxymethylcellulose (CMC) 100 % of control | dose: 400.0 mg/kg/injection, schedule: Q01DX001 (ip), vehicle: carboxymethylcellulose (CMC) 97 % of control

N#Cc1c(/N=C/c2ccc3c(c2)CCC3)oc(-c2ccccc2)c1-c1ccccc1
inactive: [1] 103 % of control | [2] 97 % of control | [3] 94 % of control

Cc1ccc[n+]([O-])c1N=[N+]=[N-]
inactive: dose: 100.0 mg/kg/injection, schedule: Q04DX003 (ip), vehicle: saline 102 % of control | dose: 200.0 mg/kg/injection, schedule: Q04DX003 (ip), vehicle: saline 102 % of control | dose: 400.0 mg/kg/injection, schedule: Q04DX003 (ip), vehicle: saline 98 % of control

OCCOc1nc(Cl)nc(Cl)c1Cl (tested in a mixture with another compound)
inactive: dose: 12.5 mg/kg/injection, schedule: Q01DX009 (ip), vehicle: Klucel (hydroxypropylcellulose) (HPC) 110 % of control | [4] 96 % of control | [5] 100 % of control and 91 % of control

Cc1cc(=O)c2cc(N(C)C)ccc2[nH]1
inactive: dose: 100.0 mg/kg/injection, schedule: Q01DX009 (ip), vehicle: water 100 % of control | dose: 100.0 mg/kg/injection, schedule: Q04DX003 (ip), vehicle: water 115 % of control | dose: 200.0 mg/kg/injection, schedule: Q01DX009 (ip), vehicle: water 105 % of control | dose: 200.0 mg/kg/injection, schedule: Q04DX003 (ip), vehicle: water 116 % of control | dose: 400.0 mg/kg/injection, schedule: Q01DX009 (ip), vehicle: water 104 % of control | dose: 400.0 mg/kg/injection, schedule: Q04DX003 (ip), vehicle: water 116 % of control

Clc1nnc2c3ccccc3ccn12
inactive: [6] 96 % of control | [7] 98 % of control

CCOC(=O)c1ccc(NC(=O)Nc2ccc(SC)cc2)cc1
inactive: [8] 98 % of control | dose: 200.0 mg/kg/injection, schedule: Q01DX009 (ip), vehicle: Klucel (hydroxypropylcellulose) (HPC) 95 % of control | dose: 400.0 mg/kg/injection, schedule: Q01DX009 (ip), vehicle: Klucel (hydroxypropylcellulose) (HPC) 104 % of control

CCOC(=O)C1=C(O)c2c(sc(C)c2C)N(S(=O)(=O)c2ccc(C)cc2)CC1
inactive: dose: 50.0 mg/kg/injection, schedule: Q01DX009 (ip), vehicle: saline with Tween-80 93 % of control | dose: 50.0 mg/kg/injection, schedule: Q04DX003 (ip), vehicle: saline with Tween-80 97 % of control | [9] 90 % of control | [10] 101 % of control | [11] 96 % of control | [12] 93 % of control | [13] 98 % of control

CCSc1nc2ccccc2s1
inactive: dose: 100.0 mg/kg/injection, schedule: Q01DX001 (ip), vehicle: other 93 % of control | dose: 200.0 mg/kg/injection, schedule: Q01DX001 (ip), vehicle: other 98 % of control

O=C(N/N=C/NN/C=N/NC(=O)c1ccncc1)c1ccncc1
inactive: [14] 101 % of control | [15] 100 % of control

CCC[n+]1nc2ccccc2c(=Nc2ccccc2[N+](=O)[O-])[n-]1
inactive: dose: 100.0 mg/kg/injection, schedule: Q01DX001 (ip), vehicle: Klucel (hydroxypropylcellulose) (HPC) 100 % of control | [1] 98 % of control | dose: 200.0 mg/kg/injection, schedule: Q01DX001 (ip), vehicle: Klucel (hydroxypropylcellulose) (HPC) 100 % of control | [2] 106 % of control | dose: 400.0 mg/kg/injection, schedule: Q01DX001 (ip), vehicle: Klucel (hydroxypropylcellulose) (HPC) 98 % of control | [3] 101 % of control

O=C(Nc1ncc([N+](=O)[O-])s1)c1ccc(Cl)s1
inactive: dose: 6.25 mg/kg/injection, schedule: Q04DX002 (ip), vehicle: Klucel (hydroxypropylcellulose) (HPC) 94 % of control | dose: 12.5 mg/kg/injection, schedule: Q04DX002 (ip), vehicle: Klucel (hydroxypropylcellulose) (HPC) 91 % of control | dose: 25.0 mg/kg/injection, schedule: Q04DX002 (ip), vehicle: Klucel (hydroxypropylcellulose) (HPC) 87 % of control

O=C(SCC(NSc1ccccc1[N+](=O)[O-])C(=O)O)c1ccccc1 (configuration not stated)
inactive: dose: 12.0 mg/kg/injection, schedule: Q04DX003 (ip), vehicle: Klucel (hydroxypropylcellulose) (HPC) 90 % of control | [4] 95 % of control | dose: 25.0 mg/kg/injection, schedule: Q04DX003 (ip), vehicle: Klucel (hydroxypropylcellulose) (HPC) 95 % of control | [5] 98 % of control | dose: 50.0 mg/kg/injection, schedule: Q04DX003 (ip), vehicle: Klucel (hydroxypropylcellulose) (HPC) 95 % of control | [8] 98 % of control

COC(=O)c1ccc2c(ccc[n+]2C)c1
inactive: dose: 37.5 mg/kg/injection, schedule: Q04DX003 (ip), vehicle: saline with Tween-80 96 % of control | [14] 97 % of control | dose: 75.0 mg/kg/injection, schedule: Q04DX003 (ip), vehicle: saline with Tween-80 96 % of control | [15] 90 % of control | dose: 150.0 mg/kg/injection, schedule: Q04DX003 (ip), vehicle: saline with Tween-80 89 % of control

S=P(c1ccccc1)(c1ccccc1)P(=S)(c1ccccc1)c1ccccc1
inactive: dose: 100.0 mg/kg/injection, schedule: Q04DX002 (ip), vehicle: Klucel (hydroxypropylcellulose) (HPC) 100 % of control | dose: 200.0 mg/kg/injection, schedule: Q04DX002 (ip), vehicle: Klucel (hydroxypropylcellulose) (HPC) 92 % of control | dose: 400.0 mg/kg/injection, schedule: Q04DX002 (ip), vehicle: Klucel (hydroxypropylcellulose) (HPC) 92 % of control

N#Cc1ccc(CCc2ccc(Cl)cc2)cc1
inactive: dose: 50.0 mg/kg/injection, schedule: Q01DX001 (ip), vehicle: saline 94 % of control | [6] 95 % of control | [7] 101 % of control | dose: 400.0 mg/kg/injection, schedule: Q01DX001 (ip), vehicle: saline 92 % of control

COc1ccc(C)cc1NC(=S)NC(=O)c1cccc([N+](=O)[O-])c1
inactive: dose: 100.0 mg/kg/injection, schedule: Q01DX001 (ip), vehicle: saline with Tween-80 93 % of control | [9] 100 % of control and 89 % of control | dose: 100.0 mg/kg/injection, schedule: Q04DX002 (ip), vehicle: saline with Tween-80 87 % of control | [10] 101 % of control | dose: 200.0 mg/kg/injection, schedule: Q01DX001 (ip), vehicle: saline with Tween-80 89 % of control | [11] 96 % of control and 97 % of control | dose: 200.0 mg/kg/injection, schedule: Q04DX002 (ip), vehicle: saline with Tween-80 97 % of control | [12] 93 % of control | dose: 400.0 mg/kg/injection, schedule: Q01DX009 (ip), vehicle: saline with Tween-80 92 % of control and 101 % of control | dose: 400.0 mg/kg/injection, schedule: Q04DX002 (ip), vehicle: saline with Tween-80 90 % of control | [13] 88 % of control
